Experimental data taken from the supplement of paper PMC4862054.

Assays:
Conditions in all cases: incubation time: 72 h
[1] = test system: MDA-MB-436; test: normalised response (% of control), CellTiter-Glo; higher = more viable cells (100 = DMSO, 0 = benzethonium chloride kill control)
Procedure: (§1)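 DSRT, 72 h incubation, CellTox Green / CellTiter-Glo readout. Signal is normalised to DMSO and benzethonium chloride controls. Value is the normalised response at dose 3.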

[2] = test system: HDQ-P1; test: as above
Procedure: as §1

[3] = test system: SK-BR-3; test: as above
Procedure: as §1

[4] = test system: MFM-223; test: as above
Procedure: as §1

[5] = test system: CAL-85-1; test: as above
Procedure: as §1

[6] = test system: CAL-51; test: as above
Procedure: as §1

[7] = test system: MDA-MB-231; test: as above
Procedure: as §1

[8] = test system: MCF-10A; test: as above
Procedure: as §1

[9] = test system: Hs578T; test: as above
Procedure: as §1

[10] = test system: MDA-MB-468; test: as above
Procedure: as §1

[11] = test system: HCC1143; test: as above
Procedure: as §1

[12] = test system: DU-4475; test: as above
Procedure: as §1

[13] = test system: BT-474; test: as above
Procedure: as §1

[14] = test system: MDA-MB-453; test: as above
Procedure: as §1

[15] = test system: HCC1937; test: as above
Procedure: as §1

[16] = test system: CAL-120; test: as above
Procedure: as §1

[17] = test system: BT-549; test: as above
Procedure: as §1

[18] = test system: CAL-148; test: as above
Procedure: as §1

[19] = test system: HCC1599; test: as above
Procedure: as §1

[20] = test system: MDA-MB-436; test: normalised response (% of control), CellTox Green; higher = less cell death (100 = DMSO, 0 = benzethonium chloride kill control)
Summary of the method: (§2)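 Breast cancer cell lines were exposed for 72 h in 384-well plates to compound at 5 concentrations, 10-fold apart, covering a 10,000-fold range fixed for each compound. Plates were read for CellTox Green fluorescence and CellTiter-Glo luminescence and normalised to 0.1 % DMSO (100) and a positive kill control (0). Each value is the normalised signal at one concentration of the series.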

[21] = test system: HDQ-P1; test: as above
Summary of the method: as §2

[22] = test system: MFM-223; test: as above
Summary of the method: as §2

[23] = test system: CAL-85-1; test: as above
Summary of the method: as §2

[24] = test system: CAL-51; test: as above
Summary of the method: as §2

[25] = test system: MDA-MB-231; test: as above
Summary of the method: as §2

[26] = test system: MCF-10A; test: as above
Summary of the method: as §2

[27] = test system: Hs578T; test: as above
Summary of the method: as §2

[28] = test system: MDA-MB-468; test: as above
Summary of the method: as §2

[29] = test system: DU-4475; test: as above
Summary of the method: as §2

[30] = test system: BT-474; test: as above
Summary of the method: as §2

[31] = test system: MDA-MB-453; test: as above
Summary of the method: as §2

[32] = test system: HCC1937; test: as above
Summary of the method: as §2

[33] = test system: CAL-120; test: as above
Summary of the method: as §2

[34] = test system: BT-549; test: as above
Summary of the method: as §2

[35] = test system: CAL-148; test: as above
Summary of the method: as §2

[36] = test system: HCC1599; test: as above
Summary of the method: as §2

[37] = test system: HCC1143; test: as above
Summary of the method: as §2

Compound | normalised response [1] | normalised response [2] | normalised response [3] | normalised response [4] | normalised response [5] | normalised response [6] | normalised response [7] | normalised response [8] | normalised response [9] | normalised response [10] | normalised response [11] | normalised response [12] | normalised response [13] | normalised response [14] | normalised response [15] | normalised response [16] | normalised response [17] | normalised response [18] | normalised response [19] | normalised response [20] | normalised response [21] | normalised response [22] | normalised response [23] | normalised response [24] | normalised response [25] | normalised response [26] | normalised response [27] | normalised response [28] | normalised response [29] | normalised response [30] | normalised response [31] | normalised response [32] | normalised response [33] | normalised response [34] | normalised response [35] | normalised response [36] | normalised response [37]
CN(C)C/C=C/C(=O)Nc1cc2c(Nc3ccc(F)c(Cl)c3)ncnc2cc1O[C@H]1CCOC1 [Afatinib] (10 nM) | 96% | 81.2% | 64.6% | 104% | 97% | 87.7% | 99.3% | 59.3% | 101% | 98.1% | 106% | 106% | 98.9% | 88.6% | 97.6% | 94% | 112% | 97.9% | 118% | 96.1% | 101% | 69% | 94.8% | 109% | 96.5% | 12.3% | 97.6% | 70.8% | 97.6% | 95.2% | 82.9% | 113% | 95.5% | 67.8% | 97.5% | 109% | –
CN1CC[C@H](c2c(O)cc(O)c3c(=O)cc(-c4ccccc4Cl)oc23)[C@H](O)C1 [Alvocidib] (100 nM) | 75.9% | 86.5% | 87.8% | 96.9% | 104% | 81.3% | 90.8% | 100% | 103% | 91.9% | 102% | 94.1% | 85.8% | 122% | 99.2% | 86.2% | 95.5% | 100% | 108% | 69.6% | 92.7% | 106% | 91.1% | 102% | 69% | 91.8% | – | 111% | 96.8% | 98.4% | 106% | 113% | 97.2% | 101% | 103% | 108% | 114%
Nc1nc(Cl)nc2c1ncn2[C@H]1C[C@H](O)[C@@H](CO)O1 [Cladribine] (10 nM) | 102% | 95.8% | 108% | 104% | 101% | 84.4% | 100% | 99.5% | 101% | 102% | 101% | 102% | 99.6% | 105% | 92.6% | 102% | 105% | 99.5% | 106% | – | 62.4% | 104% | 107% | 106% | 109% | 102% | – | – | 102% | 100% | 58.9% | 88.3% | 102% | 97.8% | 80.9% | 95% | 53.3%
COc1cccc2c1C(=O)c1c(O)c3c(c(O)c1C2=O)C[C@@](O)(C(=O)CO)C[C@@H]3O[C@H]1C[C@H](N)[C@H](O)[C@H](C)O1 [Doxorubicin] (10 nM) | 92.5% | 102% | 107% | 108% | 103% | 91.8% | 104% | 98.4% | 106% | 106% | 109% | 104% | 103% | 106% | 101% | 98.1% | 103% | 111% | 98.8% | 94.8% | 110% | 107% | 100% | 107% | – | 90% | 111% | 91.5% | 101% | 98% | 105% | 91.2% | 96.7% | 82.1% | 107% | 118% | 112%
CC(=O)O[C@]1(C(C)=O)CC[C@H]2[C@@H]3C=C(C)C4=CC(=O)CC[C@]4(C)[C@H]3CC[C@@]21C [Megestrol acetate] (100 nM) | 101% | 95.6% | 94.3% | 99.1% | 104% | 109% | 111% | 104% | 106% | 90.4% | 95.7% | 99.4% | 109% | 86.9% | 104% | 96.5% | 109% | 97.4% | 102% | 107% | 81.5% | 99.2% | 103% | 105% | 116% | 64.5% | – | 149% | 99.9% | 101% | 104% | 68.3% | 103% | 95.4% | 66.4% | 83.5% | 74%
COc1cccc2cc(-c3nc([C@H]4CC[C@H](C(=O)O)CC4)n4ncnc(N)c34)[nH]c12 [OSI-027] (100 nM) | 92% | 97% | 77.3% | 91.3% | 96.6% | 103% | 95.3% | 86.7% | 95.3% | 92.1% | 101% | 100% | 94.8% | 74.2% | 98.2% | 92.9% | 98.3% | 100% | 114% | – | 114% | 105% | 95.9% | 105% | 76.7% | 98.3% | 108% | 77.1% | 98.5% | 99.4% | 101% | 90.9% | 97.6% | 93.2% | 102% | 102% | –
OC[C@H]1O[C@@H](n2cnc3c2N=CNC[C@H]3O)C[C@@H]1O [Pentostatin] (100 nM) | 96.6% | 99% | 100% | 100% | 100% | 86.6% | 106% | 102% | 104% | 96.9% | 104% | 106% | 93.3% | 101% | 99.4% | 103% | 96.1% | 97.8% | 107% | 90.5% | 77.7% | 99.5% | 106% | 102% | 123% | 94.7% | – | 104% | 101% | 101% | 103% | 96.4% | 103% | 99.5% | 55.8% | 100% | 88.7%
N#CC[C@H](C1CCCC1)n1cc(-c2ncnc3[nH]ccc23)cn1 [Ruxolitinib] (100 nM) | 93.8% | 100% | 88.4% | 90.5% | 95.1% | 113% | 97.9% | 84.2% | 94.4% | 96.6% | 98.2% | 95.8% | 96.6% | 85.7% | 102% | 96.3% | 103% | 87.1% | 94% | 83.7% | 94.4% | 98.4% | 97.7% | 99.5% | – | 86.5% | 60.9% | 52.5% | 96.2% | 97.1% | 99% | 91.7% | 103% | 108% | 78.4% | 95% | 96.9%
